Data as given in patent publication US8192962B2, “Processes for detecting toxic substances” (Daikin Industries, Ltd., priority 2001, dated 2012).

System: Stress protein genes
Experiment: DNA chip mRNA expression in yeast, stress protein genes (Table 6)
Type: cell-based, Saccharomyces cerevisiae S288C
Method in brief: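 Values are treated/untreated fluorescence ratios from a whole-genome yeast DNA chip hybridized over 12 hours at 65° C with Cy3- or Cy5-labelled cDNA from poly(A) mRNA. Log-phase S288C yeast in YPD at 25° C had received a single toxic chemical for two hours, dosed to slow growth without killing.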

Compound: CN(C)C(=S)SSC(=S)N(C)C [(10), Tetramethylthiuram disulfide]
- The level of expressed mRNA in the presence of chemical substance/The level of expressed mRNA in the absence of chemical substance (yeast gene YAL005C): 1.8
- The level of expressed mRNA in the presence of chemical substance/The level of expressed mRNA in the absence of chemical substance (yeast gene YAL015C): 2.7
- The level of expressed mRNA in the presence of chemical substance/The level of expressed mRNA in the absence of chemical substance (yeast gene YBL075C): 6.7
- The level of expressed mRNA in the presence of chemical substance/The level of expressed mRNA in the absence of chemical substance (yeast gene YBL093C): 1.1
- The level of expressed mRNA in the presence of chemical substance/The level of expressed mRNA in the absence of chemical substance (yeast gene YBR044C): 1.2
- The level of expressed mRNA in the presence of chemical substance/The level of expressed mRNA in the absence of chemical substance (yeast gene YBR054W): 1.2
- The level of expressed mRNA in the presence of chemical substance/The level of expressed mRNA in the absence of chemical substance (yeast gene YBR067C): 1.0
- The level of expressed mRNA in the presence of chemical substance/The level of expressed mRNA in the absence of chemical substance (yeast gene YBR072W): 43.4
- The level of expressed mRNA in the presence of chemical substance/The level of expressed mRNA in the absence of chemical substance (yeast gene YBR169C): 4.3
- The level of expressed mRNA in the presence of chemical substance/The level of expressed mRNA in the absence of chemical substance (yeast gene YCL035C): 2.3
- The level of expressed mRNA in the presence of chemical substance/The level of expressed mRNA in the absence of chemical substance (yeast gene YCR021C): 1.0
- The level of expressed mRNA in the presence of chemical substance/The level of expressed mRNA in the absence of chemical substance (yeast gene YCR060W): 1.1
- The level of expressed mRNA in the presence of chemical substance/The level of expressed mRNA in the absence of chemical substance (yeast gene YCR083W): 1.8
- The level of expressed mRNA in the presence of chemical substance/The level of expressed mRNA in the absence of chemical substance (yeast gene YDL022W): 1.8
- The level of expressed mRNA in the presence of chemical substance/The level of expressed mRNA in the absence of chemical substance (yeast gene YDL025C): 4.5
- The level of expressed mRNA in the presence of chemical substance/The level of expressed mRNA in the absence of chemical substance (yeast gene YDR033W): 1.0
- The level of expressed mRNA in the presence of chemical substance/The level of expressed mRNA in the absence of chemical substance (yeast gene YDR077W): 0.7
- The level of expressed mRNA in the presence of chemical substance/The level of expressed mRNA in the absence of chemical substance (yeast gene YDR098C): 1.5
- The level of expressed mRNA in the presence of chemical substance/The level of expressed mRNA in the absence of chemical substance (yeast gene YDR155C): 1.3
- The level of expressed mRNA in the presence of chemical substance/The level of expressed mRNA in the absence of chemical substance (yeast gene YDR258C): 13.3
- The level of expressed mRNA in the presence of chemical substance/The level of expressed mRNA in the absence of chemical substance (yeast gene YDR293C): 1.2
- The level of expressed mRNA in the presence of chemical substance/The level of expressed mRNA in the absence of chemical substance (yeast gene YDR436W): 1.1
- The level of expressed mRNA in the presence of chemical substance/The level of expressed mRNA in the absence of chemical substance (yeast gene YDR513W): 3.1
- The level of expressed mRNA in the presence of chemical substance/The level of expressed mRNA in the absence of chemical substance (yeast gene YDR519W): 1.2
- The level of expressed mRNA in the presence of chemical substance/The level of expressed mRNA in the absence of chemical substance (yeast gene YEL030W): 2.5
- The level of expressed mRNA in the presence of chemical substance/The level of expressed mRNA in the absence of chemical substance (yeast gene YEL039C): 1.2
- The level of expressed mRNA in the presence of chemical substance/The level of expressed mRNA in the absence of chemical substance (yeast gene YER042W): 2.1
- The level of expressed mRNA in the presence of chemical substance/The level of expressed mRNA in the absence of chemical substance (yeast gene YER057C): 1.4
- The level of expressed mRNA in the presence of chemical substance/The level of expressed mRNA in the absence of chemical substance (yeast gene YER103W): 9.0
- The level of expressed mRNA in the presence of chemical substance/The level of expressed mRNA in the absence of chemical substance (yeast gene YER125W): 1.2
- The level of expressed mRNA in the presence of chemical substance/The level of expressed mRNA in the absence of chemical substance (yeast gene YFL014W): 5.8
- The level of expressed mRNA in the presence of chemical substance/The level of expressed mRNA in the absence of chemical substance (yeast gene YFL016C): 2.9
- The level of expressed mRNA in the presence of chemical substance/The level of expressed mRNA in the absence of chemical substance (yeast gene YFL020C): 1.4
- The level of expressed mRNA in the presence of chemical substance/The level of expressed mRNA in the absence of chemical substance (yeast gene YFR052W): 3.0
- The level of expressed mRNA in the presence of chemical substance/The level of expressed mRNA in the absence of chemical substance (yeast gene YGL073W): 2.4
- The level of expressed mRNA in the presence of chemical substance/The level of expressed mRNA in the absence of chemical substance (yeast gene YGL115W): 1.2
- The level of expressed mRNA in the presence of chemical substance/The level of expressed mRNA in the absence of chemical substance (yeast gene YGL181W): 2.3
- The level of expressed mRNA in the presence of chemical substance/The level of expressed mRNA in the absence of chemical substance (yeast gene YGR088W): 3.2
- The level of expressed mRNA in the presence of chemical substance/The level of expressed mRNA in the absence of chemical substance (yeast gene YHL028W): 0.4
- The level of expressed mRNA in the presence of chemical substance/The level of expressed mRNA in the absence of chemical substance (yeast gene YHL046C): 2.1
- The level of expressed mRNA in the presence of chemical substance/The level of expressed mRNA in the absence of chemical substance (yeast gene YHR030C): 2.5
- The level of expressed mRNA in the presence of chemical substance/The level of expressed mRNA in the absence of chemical substance (yeast gene YHR057C): 1.2
- The level of expressed mRNA in the presence of chemical substance/The level of expressed mRNA in the absence of chemical substance (yeast gene YHR104W): 2.3
- The level of expressed mRNA in the presence of chemical substance/The level of expressed mRNA in the absence of chemical substance (yeast gene YIL011W): 0.5
- The level of expressed mRNA in the presence of chemical substance/The level of expressed mRNA in the absence of chemical substance (yeast gene YIL033C): 1.3
- The level of expressed mRNA in the presence of chemical substance/The level of expressed mRNA in the absence of chemical substance (yeast gene YIR037W): 3.8
- The level of expressed mRNA in the presence of chemical substance/The level of expressed mRNA in the absence of chemical substance (yeast gene YIR038C): 4.5
- The level of expressed mRNA in the presence of chemical substance/The level of expressed mRNA in the absence of chemical substance (yeast gene YJL128C): 1.7
- The level of expressed mRNA in the presence of chemical substance/The level of expressed mRNA in the absence of chemical substance (yeast gene YJL158C): 0.5
- The level of expressed mRNA in the presence of chemical substance/The level of expressed mRNA in the absence of chemical substance (yeast gene YJL159W): 1.2
- The level of expressed mRNA in the presence of chemical substance/The level of expressed mRNA in the absence of chemical substance (yeast gene YJL165C): 1.0
- The level of expressed mRNA in the presence of chemical substance/The level of expressed mRNA in the absence of chemical substance (yeast gene YJR045C): 3.0
- The level of expressed mRNA in the presence of chemical substance/The level of expressed mRNA in the absence of chemical substance (yeast gene YJR090C): 1.2
- The level of expressed mRNA in the presence of chemical substance/The level of expressed mRNA in the absence of chemical substance (yeast gene YKL161C): 1.7
- The level of expressed mRNA in the presence of chemical substance/The level of expressed mRNA in the absence of chemical substance (yeast gene YKL163W): 1.6
- The level of expressed mRNA in the presence of chemical substance/The level of expressed mRNA in the absence of chemical substance (yeast gene YKL164C): 0.7
- The level of expressed mRNA in the presence of chemical substance/The level of expressed mRNA in the absence of chemical substance (yeast gene YKL210W): 2.9
- The level of expressed mRNA in the presence of chemical substance/The level of expressed mRNA in the absence of chemical substance (yeast gene YKR053C): 1.8
- The level of expressed mRNA in the presence of chemical substance/The level of expressed mRNA in the absence of chemical substance (yeast gene YLL024C): 2.4
- The level of expressed mRNA in the presence of chemical substance/The level of expressed mRNA in the absence of chemical substance (yeast gene YLL026W): 6.6
- The level of expressed mRNA in the presence of chemical substance/The level of expressed mRNA in the absence of chemical substance (yeast gene YLL039C): 1.5
- The level of expressed mRNA in the presence of chemical substance/The level of expressed mRNA in the absence of chemical substance (yeast gene YLL060C): 23.2
- The level of expressed mRNA in the presence of chemical substance/The level of expressed mRNA in the absence of chemical substance (yeast gene YLR006C): 1.1
- The level of expressed mRNA in the presence of chemical substance/The level of expressed mRNA in the absence of chemical substance (yeast gene YLR109W): 2.7
- The level of expressed mRNA in the presence of chemical substance/The level of expressed mRNA in the absence of chemical substance (yeast gene YLR259C): 2.6
- The level of expressed mRNA in the presence of chemical substance/The level of expressed mRNA in the absence of chemical substance (yeast gene YML007W): 2.5
- The level of expressed mRNA in the presence of chemical substance/The level of expressed mRNA in the absence of chemical substance (yeast gene YML070W): 3.9
- The level of expressed mRNA in the presence of chemical substance/The level of expressed mRNA in the absence of chemical substance (yeast gene YMR021C): 1.3
- The level of expressed mRNA in the presence of chemical substance/The level of expressed mRNA in the absence of chemical substance (yeast gene YMR173W): 8.2
- The level of expressed mRNA in the presence of chemical substance/The level of expressed mRNA in the absence of chemical substance (yeast gene YMR186W): 1.3
- The level of expressed mRNA in the presence of chemical substance/The level of expressed mRNA in the absence of chemical substance (yeast gene YNL064C): 1.8
- The level of expressed mRNA in the presence of chemical substance/The level of expressed mRNA in the absence of chemical substance (yeast gene YNL160W): 2.7
- The level of expressed mRNA in the presence of chemical substance/The level of expressed mRNA in the absence of chemical substance (yeast gene YNL241C): 7.4
- The level of expressed mRNA in the presence of chemical substance/The level of expressed mRNA in the absence of chemical substance (yeast gene YNR076W): 2.5
- The level of expressed mRNA in the presence of chemical substance/The level of expressed mRNA in the absence of chemical substance (yeast gene YOL064C): 2.7
- The level of expressed mRNA in the presence of chemical substance/The level of expressed mRNA in the absence of chemical substance (yeast gene YOL161C): 2.0
- The level of expressed mRNA in the presence of chemical substance/The level of expressed mRNA in the absence of chemical substance (yeast gene YOR008C): 1.0
- The level of expressed mRNA in the presence of chemical substance/The level of expressed mRNA in the absence of chemical substance (yeast gene YOR009W): 0.5
- The level of expressed mRNA in the presence of chemical substance/The level of expressed mRNA in the absence of chemical substance (yeast gene YOR010C): 0.7
- The level of expressed mRNA in the presence of chemical substance/The level of expressed mRNA in the absence of chemical substance (yeast gene YOR027W): 4.0
- The level of expressed mRNA in the presence of chemical substance/The level of expressed mRNA in the absence of chemical substance (yeast gene YOR208W): 2.0
- The level of expressed mRNA in the presence of chemical substance/The level of expressed mRNA in the absence of chemical substance (yeast gene YPL059W): 1.3
- The level of expressed mRNA in the presence of chemical substance/The level of expressed mRNA in the absence of chemical substance (yeast gene YPL106C): 1.8
- The level of expressed mRNA in the presence of chemical substance/The level of expressed mRNA in the absence of chemical substance (yeast gene YPL140C): 0.9
- The level of expressed mRNA in the presence of chemical substance/The level of expressed mRNA in the absence of chemical substance (yeast gene YPL194W): 3.1
- The level of expressed mRNA in the presence of chemical substance/The level of expressed mRNA in the absence of chemical substance (yeast gene YPL223C): 16.5
- The level of expressed mRNA in the presence of chemical substance/The level of expressed mRNA in the absence of chemical substance (yeast gene YPL240C): 2.6
- The level of expressed mRNA in the presence of chemical substance/The level of expressed mRNA in the absence of chemical substance (yeast gene YPR005C): 2.0
- The level of expressed mRNA in the presence of chemical substance/The level of expressed mRNA in the absence of chemical substance (yeast gene YPR026W): 3.1
